The values below come from article PMC10377586 (Biomolecules, 2023).

One test addresses T1, human MAO-B (Homo sapiens, UniProt P27338).
T1 construct: purchased Sigma Aldrich M7441
T1 sequence (P27338 1-520): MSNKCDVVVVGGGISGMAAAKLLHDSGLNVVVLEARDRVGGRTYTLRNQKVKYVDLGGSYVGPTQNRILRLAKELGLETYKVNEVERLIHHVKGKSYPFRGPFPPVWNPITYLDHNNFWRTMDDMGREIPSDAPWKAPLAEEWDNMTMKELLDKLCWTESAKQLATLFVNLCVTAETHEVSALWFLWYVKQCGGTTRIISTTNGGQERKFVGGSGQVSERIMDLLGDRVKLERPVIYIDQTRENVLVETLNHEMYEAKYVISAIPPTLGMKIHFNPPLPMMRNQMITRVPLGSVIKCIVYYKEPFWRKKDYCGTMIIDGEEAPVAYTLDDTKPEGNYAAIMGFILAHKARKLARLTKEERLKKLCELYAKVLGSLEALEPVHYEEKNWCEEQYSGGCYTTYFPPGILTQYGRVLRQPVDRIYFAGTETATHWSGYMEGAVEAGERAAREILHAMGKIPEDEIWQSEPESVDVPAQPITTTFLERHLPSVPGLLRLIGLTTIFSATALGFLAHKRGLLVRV
The experiment in a line: Amplex Red monoamine oxidase assay, MAO-B. It counts as biochemical. The following applies: human recombinant MAO-B; read-out: MAO-B IC50 ± SEM.

In another test the target is T2, human MAO-A (Homo sapiens, UniProt P21397).
T2 construct: purchased Sigma Aldrich M7316
T2 sequence (P21397 1-527): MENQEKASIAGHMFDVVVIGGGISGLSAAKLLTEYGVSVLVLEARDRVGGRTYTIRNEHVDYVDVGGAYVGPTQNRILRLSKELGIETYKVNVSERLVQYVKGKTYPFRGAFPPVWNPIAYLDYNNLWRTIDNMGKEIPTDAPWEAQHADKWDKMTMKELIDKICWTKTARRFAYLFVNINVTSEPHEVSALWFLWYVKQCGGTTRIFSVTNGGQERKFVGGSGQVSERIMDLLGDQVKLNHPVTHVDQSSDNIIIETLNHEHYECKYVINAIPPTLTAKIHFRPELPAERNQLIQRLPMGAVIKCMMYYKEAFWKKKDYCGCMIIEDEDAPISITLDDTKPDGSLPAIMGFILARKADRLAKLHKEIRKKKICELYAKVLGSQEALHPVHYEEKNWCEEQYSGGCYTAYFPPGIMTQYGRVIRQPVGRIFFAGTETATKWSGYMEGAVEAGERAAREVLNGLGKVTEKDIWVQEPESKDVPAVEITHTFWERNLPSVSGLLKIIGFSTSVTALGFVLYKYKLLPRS
The experiment in a line: Amplex Red monoamine oxidase assay, MAO-A. It counts as biochemical. The conditions noted are these: for IC50: human recombinant MAO-A, read-out: MAO-A IC50 ± SEM; for inhibition at 1 µM: read-out: MAO-A % Inhibition ± SEM at 1 µM. The protocol:
The final compounds were evaluated in vitro for their human MAO-B (hMAO-B) inhibitory potencies, and selected structures were also investigated for human MAO-A (hMAO-A) inhibition.
Inhibition activity of compounds at MAO enzyme isoforms was measured via a fluorometric method using the Amplex Red Monoamine Oxidase Assay (ThermoFisher Scientific, Waltham, MA, USA #A12214) in a 96-well plates. Human recombinant MAO-B and MAO-A enzymes (Sigma Aldrich, St. Louis, MO, USA #M7441 and #M7316) were used. The assays were conducted as previously described.

A short description of another test: DPPH antioxidant assay. The format is physicochemical. The conditions noted are these: compound at 50 µM. The text has this: The 2,2-diphenyl-1-picrylhydrazyl (DPPH) assay was used to determine the antioxidant properties of selected compounds using ascorbic acid, trolox, and quercetin as references. […] From a structural point of view, 21 and 22 share a common pyrimido[2,1-f]purinedione core with propyl or butyl substituents at the N1- and N3-position. Compounds 11i and 11l, containing hexyl or phenoxyethyl as N7-substituents, were the only structures in the groups of bicyclic xanthine derivatives that lacked antioxidant activity in the DPPH assay.
Antioxidant properties of considered structures were evaluated in DPPH test. The assay utilizes a stable free radical 2,2-diphenyl-1-picrylhydrazyl (DPPH). DPPH has a deep violet color in solution and strong absorption band at 520 nm. The antioxidant activity of the tested compounds was defined by their ability to induce the formation of the reduced form of DPPH. Upon reduction, DPPH color turned pale yellow, which manifested by decreased sample absorption at 520 nm and was measured in conducted experiments using EnSpire microplate reader (PerkinElmer). Antioxidant activity of xanthine derivatives and reference compounds was tested in triplicate at 50 µM concentration and normalized to the activity of reference radical scavenger—quercetin.
Figure 2 Antioxidant properties of xanthine derivatives evaluated in the DPPH test. All compounds were tested at 50 µM concentration. Results were normalized to the antioxidant activity measured for quercetin. ASC, ascorbic acid; TLX, trolox; QCT, quercetin.
In general terms: Loss of DPPH colour is used to gauge radical scavenging.

In a further test the target is human D2L receptor (Homo sapiens, UniProt P14416). Description: Radioligand binding [3H]-raclopride, HEK293 membranes. The following applies: HEK293 cells, human D2; read-out: hD2 [3H]-Raclopride Ki ± SEM. The protocol:
Rat brain cortical membranes were used as source of native rat D1 receptor protein, and human D2 receptor was recombinantly expressed in HEK293 cells.
HEK293 cells with stable expression of human D2L receptor were maintained at 37 °C in a humidified atmosphere with 5% CO2 and grown in Dulbecco’s Modifier Eagle Medium containing 10% dialyzed fetal bovine serum and 500 µg/mL G418 sulfate. For membrane preparation, cells were subcultured in 150 cm^2 flasks, grown to 90% confluence, washed twice with prewarmed to 37 °C phosphate buffered saline (PBS), and pelleted by centrifugation (200× g) in PBS containing 0.1 mM EDTA and 1 mM dithiothreitol. Prior to membrane preparation, pellets were stored at −80 °C.
Cell pellets were thawed and homogenized in 10 volumes of assay buffer using an Ultra Turrax tissue homogenizer and centrifuged twice at 35,000× g for 15 min at 4 °C. The incubation buffer consisted of 50 mM Tris-HCl, 1 mM EDTA, 4 mM MgCl2, 120 mM NaCl, 5 mM KCl, 1.5 mM CaCl2, and 0.1% ascorbate. Assay was incubated in a total volume of 200 µL in 96-well microtiter plate for 1 h at 37 °C. The process of equilibration was terminated by rapid filtration through Unifilter plate with a 96-well cell harvester and radioactivity retained on the filter was quantified on a Microbeta plate reader (PerkinElmer). For competition studies, the assay samples contained radioligand 2.5 nM [^3H]-raclopride (PerkinElmer). Non-specific binding was defined with 10 µM of haloperidol. Each compound was tested in triplicate at 7 concentrations (10^−10–10^−4 M). The inhibition constants (Ki) were calculated from the Cheng–Prusoff equation [66]. Results were expressed as means of at least two separate experiments.

The IC50 is the concentration at which inhibition is half-maximal. What is called inhibition is the percentage by which the read-out fell short of the control. For orientation: Ki means a dissociation constant, usually derived from enzyme kinetics or from competition with a known ligand.

human D2L receptor, sequence (P14416 whole entry): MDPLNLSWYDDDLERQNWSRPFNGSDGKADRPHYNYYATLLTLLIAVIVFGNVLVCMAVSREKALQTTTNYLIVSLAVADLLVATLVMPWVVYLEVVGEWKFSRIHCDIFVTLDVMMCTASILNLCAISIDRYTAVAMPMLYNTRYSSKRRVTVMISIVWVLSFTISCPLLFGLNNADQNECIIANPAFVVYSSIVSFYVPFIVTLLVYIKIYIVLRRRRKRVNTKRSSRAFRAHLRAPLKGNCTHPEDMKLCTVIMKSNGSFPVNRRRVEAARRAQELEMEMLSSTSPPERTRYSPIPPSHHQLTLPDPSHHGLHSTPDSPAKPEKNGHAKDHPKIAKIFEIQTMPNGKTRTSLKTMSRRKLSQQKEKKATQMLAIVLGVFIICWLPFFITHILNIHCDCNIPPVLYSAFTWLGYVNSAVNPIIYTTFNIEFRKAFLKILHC

Regarding `Cn1c(=O)c2c(nc(NCCc3ccc(O)c(O)c3)n2C)n(C)c1=O` [Compound 11a, 8-((3,4-Dihydroxyphenethyl)amino)-1,3,7-trimethyl-3,7-dihydro-1H-purine-2,6-dione], the IC50 on human MAO-B is 50.7 ± 10 nM; on human MAO-A, greater than 1000 nM. The inhibition at 1 µM on human MAO-A was 44%. Further, in the test “DPPH antioxidant assay”, the “Antioxidative Activity [% of Quercetin Response at 50 µM ± SD]” value was 79 ± 1 % of Quercetin Response. Further, at human D2L receptor, the inhibition constant Ki came to 25200 ± 5970 nM.

Consider `CCn1c(NCCc2ccc(O)c(O)c2)nc2c1c(=O)n(C)c(=O)n2C` [Compound 11b, 8-((3,4-Dihydroxyphenethyl)amino)-7-ethyl-1,3-dimethyl-3,7-dihydro-1H-purine-2,6-dione], for which the IC50 came to 47.9 ± 8.4 nM at human MAO-B and 891 ± 63 nM on human MAO-A. Besides, in “DPPH antioxidant assay”, the “Antioxidative Activity [% of Quercetin Response at 50 µM ± SD]” value was 75 ± 1 % of Quercetin Response. Also, the inhibition constant Ki at human D2L receptor came to 16200 ± 1230 nM.

Take `CCCn1c(NCCc2ccc(O)c(O)c2)nc2c1c(=O)n(C)c(=O)n2C` [Compound 11c, 8-((3,4-Dihydroxyphenethyl)amino)-1,3-dimethyl-7-propyl-3,7-dihydro-1H-purine-2,6-dione]: the IC50 on human MAO-B was 165 ± 30 nM; at human MAO-A it was greater than 1000 nM. For the same molecule, the inhibition at 1 µM on human MAO-A was found to be 33%. Further, the “Antioxidative Activity [% of Quercetin Response at 50 µM ± SD]” value in the test “DPPH antioxidant assay” is recorded as 69 ± 1 % of Quercetin Response. The Ki on human D2L receptor amounted to 9370 ± 1150 nM.

On to `CC(C)n1c(NCCc2ccc(O)c(O)c2)nc2c1c(=O)n(C)c(=O)n2C` [Compound 11d, 8-((3,4-Dihydroxyphenethyl)amino)-7-isopropyl-1,3-dimethyl-3,7-dihydro-1H-purine-2,6-dione], for which, at human MAO-B, the IC50 was 126 ± 49 nM. Further, at human MAO-A, the IC50 was no less than 1000 nM and the inhibition at 1 µM came to 47%. For the same molecule, in “DPPH antioxidant assay”, the “Antioxidative Activity [% of Quercetin Response at 50 µM ± SD]” value was 87 ± 1 % of Quercetin Response. Also, the Ki at human D2L receptor was determined as 17700 ± 3990 nM.

As for `CCCCn1c(NCCc2ccc(O)c(O)c2)nc2c1c(=O)n(C)c(=O)n2C` [Compound 11e, 7-Butyl-8-((3,4-dihydroxyphenethyl)amino)-1,3-dimethyl-3,7-dihydro-1H-purine-2,6-dione], the concentration for half-maximal inhibition (IC50) on human MAO-B was 43.8 ± 16.2 nM. Besides, at human MAO-A, the IC50 was greater than 1000 nM and the inhibition at 1 µM stood at 38%. For the same molecule, the “Antioxidative Activity [% of Quercetin Response at 50 µM ± SD]” value in the test “DPPH antioxidant assay” is listed as 75 ± 1 % of Quercetin Response. On human D2L receptor, the Ki was found to be 12700 ± 1860 nM.

On to `CC(C)Cn1c(NCCc2ccc(O)c(O)c2)nc2c1c(=O)n(C)c(=O)n2C` [Compound 11f, 8-((3,4-Dihydroxyphenethyl)amino)-7-isobutyl-1,3-dimethyl-3,7-dihydro-1H-purine-2,6-dione], for which the IC50 at human MAO-B amounted to 205 ± 23 nM. On human MAO-A, the IC50 was greater than 1000 nM and the inhibition at 1 µM worked out at 42%. In addition, the “Antioxidative Activity [% of Quercetin Response at 50 µM ± SD]” value in the test “DPPH antioxidant assay” was 57 ± 1 % of Quercetin Response. For the same molecule, the Ki at human D2L receptor is 27600 ± 4000 nM.

As to `CCC(C)n1c(NCCc2ccc(O)c(O)c2)nc2c1c(=O)n(C)c(=O)n2C` (stereo not shown) [Compound 11g, 7-(Sec-butyl)-8-((3,4-dihydroxyphenethyl)amino)-1,3-dimethyl-3,7-dihydro-1H-purine-2,6-dione], the figures for the IC50 on human MAO-B and at human MAO-A were 197 ± 57 nM and greater than 1000 nM, respectively. The inhibition at 1 µM on human MAO-A worked out at 44%. Moreover, in “DPPH antioxidant assay”, the “Antioxidative Activity [% of Quercetin Response at 50 µM ± SD]” value was 71 ± 1 % of Quercetin Response. Moreover, the Ki on human D2L receptor amounted to 39200 ± 8430 nM.

For the molecule `CCCCCn1c(NCCc2ccc(O)c(O)c2)nc2c1c(=O)n(C)c(=O)n2C` [Compound 11h, 8-((3,4-Dihydroxyphenethyl)amino)-1,3-dimethyl-7-pentyl-3,7-dihydro-1H-purine-2,6-dione], the figures for the 50% inhibitory concentration (IC50) at human MAO-B and at human MAO-A were 58.3 ± 6.2 nM and 692 ± 7 nM, respectively. For the same molecule, in the test “DPPH antioxidant assay”, the “Antioxidative Activity [% of Quercetin Response at 50 µM ± SD]” value is reported as 79 ± 1 % of Quercetin Response. In addition, on human D2L receptor, the Ki is 8260 ± 480 nM.

Turning to `CCCCCCn1c(NCCc2ccc(O)c(O)c2)nc2c1c(=O)n(C)c(=O)n2C` [Compound 11i, 8-((3,4-Dihydroxyphenethyl)amino)-7-hexyl-1,3-dimethyl-3,7-dihydro-1H-purine-2,6-dione], the IC50 at human MAO-B amounted to 76.4 ± 0.7 nM; at human MAO-A it was 246 ± 72 nM. The “Antioxidative Activity [% of Quercetin Response at 50 µM ± SD]” value in the test “DPPH antioxidant assay” was 26 ± 1 % of Quercetin Response. In addition, the Ki at human D2L receptor was found to be 6680 ± 950 nM.

As for `Cn1c(=O)c2c(nc(NCCc3ccc(O)c(O)c3)n2Cc2ccccc2)n(C)c1=O` [Compound 11j, 7-Benzyl-8-((3,4-dihydroxyphenethyl)amino)-1,3-dimethyl-3,7-dihydro-1H-purine-2,6-dione], the IC50 on human MAO-B was determined as 45.6 ± 12.9 nM; on human MAO-A it was 576 ± 68 nM. For the same molecule, in “DPPH antioxidant assay”, the “Antioxidative Activity [% of Quercetin Response at 50 µM ± SD]” value is given as 82 ± 1 % of Quercetin Response. Besides, the Ki on human D2L receptor amounted to 9100 ± 1650 nM.

As for `Cn1c(=O)c2c(nc(NCCc3ccc(O)c(O)c3)n2CCc2ccccc2)n(C)c1=O` [Compound 11k, 8-((3,4-Dihydroxyphenethyl)amino)-1,3-dimethyl-7-phenethyl-3,7-dihydro-1H-purine-2,6-dione], the IC50 on human MAO-B worked out at 73.5 ± 7.5 nM; on human MAO-A, 256 ± 93 nM. In addition, in the test “DPPH antioxidant assay”, the “Antioxidative Activity [% of Quercetin Response at 50 µM ± SD]” value was 73 ± 3 % of Quercetin Response. Moreover, the Ki at human D2L receptor was 9950 ± 1950 nM.

With `Cn1c(=O)c2c(nc(NCCc3ccc(O)c(O)c3)n2CCOc2ccccc2)n(C)c1=O` [Compound 11l, 8-((3,4-Dihydroxyphenethyl)amino)-1,3-dimethyl-7-(2-phenoxyethyl)-3,7-dihydro-1H-purine-2,6-dione], the IC50 was 53.5 ± 18.2 nM on human MAO-B and greater than 1000 nM on human MAO-A. The inhibition at 1 µM on human MAO-A was determined as 41%. In the test “DPPH antioxidant assay”, the “Antioxidative Activity [% of Quercetin Response at 50 µM ± SD]” value is 26 ± 3 % of Quercetin Response. Moreover, the Ki on human D2L receptor is 8870 ± 940 nM.
